Experimental data reported in patent US9790231B2 (LUPIN LIMITED, priority 2013, dated 2017).

Test system: IL-2 secretion by Jurkat T cells
Experiment: Inhibition of IL-2 secretion (PHA-stimulated Jurkat T cells, ELISA)
Assay type: cell-based
Settings: Homo sapiens, 20 to 24 hours
Procedure: The CRAC channel modulatory activity of the compounds were thus evaluated by measuring the secretion of IL-2 by antigen stimulated T-cells in vitro. Alternatively, such activity can also be evaluated by assay methods known to one skilled in the art.
Inhibition of IL-2 secretion: Jurkat T cells were seeded at a density of 0.5 to 1 million cells per well in RPMI medium. Test compounds from this invention were added to the cells at different concentrations. This was followed by the addition of PHA, a T cell mitogen after 10 minutes. The cells were then incubated for 20 to 24 hours in a CO2 incubator at 37° C. After incubation with the compounds, cells were centrifuged; the supernatant was collected and processed for ELISA to quantitate the amount of IL-2 secreted. A commercial ELISA kit (R&D Systems, Inc. Minneapolis, Minn., USA) was used to estimate the IL-2 concentrations. Amount of IL-2 secreted by cells stimulated with PHA was considered as a 100% maximal signal and the decrease in amount of IL-2 secreted by cells treated with the test compounds was expressed as percent inhibition of the maximal signal. The dose response data was analyzed using 4-parametric sigmoidal dose response (variable slope) curve-fit.

Structure (SMILES) | IC50
Cc1cc2c(cc1-c1ccc(NCc3c(F)cccc3F)cc1)OC(C)(C)CC2=O [Example 33, 7-(4-((2,6-Difluorobenzyl)amino)phenyl)-2,2,6-trimethylchroman-4-one] | < 25 nM
Cc1cccc2c1OC(C)(C)C=C2c1ccc(NC(=O)c2c(F)cccc2F)nc1 [Example 98, 2,6-Difluoro-N(5-(2,2,8-trimethyl-2H-chromen-4-yl)pyridin-2-yl)benzamide] | 25 to 50 nM
Cc1cc2c(cc1-c1ccc(NC(=O)c3c(F)cccc3Cl)cc1)OC1(CCC1)CC2 [Example 8, 2-Chloro-6-fluoro-N-(4-(6-methylspiro[chroman-2,1′-cyclobutan]-7-yl)phenyl)benzamide] | < 25 nM
Cc1ccc2c(c1)OC1(C=C2c2ccc(NC(=O)c3c(F)cccc3F)nc2)CCC1 [Example 109, 2,6-Difluoro-N-(5-(7-methylspiro[chromene-2,1′-cyclobutan]-4-yl)pyridin-2-yl)benzamide] | 100 to 500 nM
CC1(C)C=C(c2cnc(NC(=O)c3c(F)cccc3F)cn2)c2ccccc2O1 [Example 81, N-(5-(2,2-Dimethyl-2H-chromen-4-yl)pyrazin-2-yl)-2,6-difluorobenzamide] | 50 to 100 nM
CCc1cc2c(cc1-c1cnc(NC(=O)c3c(F)cccc3F)cn1)OC1(CCC1)CC2=O [Example 41, N-(5-(6-Ethyl-4-oxospiro[chroman-2,1′-cyclobutan]-7-yl)pyrazin-2-yl)-2,6-difluorobenzamide] | 50 to 100 nM
CCc1cc2c(cc1-c1ccc(C(=O)Nc3c(F)cncc3F)cc1)OC(C)(C)CC2=O [Example 42, N-(3,5-Difluoropyridin-4-yl)-4-(6-ethyl-2,2-dimethyl-4-oxochroman-7-yl)benzamide] | < 25 nM
Cc1cc2c(cc1-c1ccc(C(=O)Nc3c(F)cncc3F)cc1)OC(C)(C)CC2=O [Example 43, N-(3,5-Difluoropyridin-4-yl)-4-(2,2,6-trimethyl-4-oxochroman-7-yl)benzamide] | 100 to 500 nM
Cc1cccc2c1OC(C)(C)C=C2c1cnc(NC(=O)c2c(F)cccc2F)cn1 [Example 89, 2,6-Difluoro-N-(5-(2,2,8-trimethyl-2H-chromen-4-yl)pyrazin-2-yl)benzamide] | < 25 nM
O=C(Nc1ccc(C2CC3(CCC3)Oc3ccccc32)cc1)c1c(F)cccc1F (stereo not drawn) [Example 69, 2,6-Difluoro-N-(4-(spiro[chroman-2,1′-cyclobutan]-4-yl)phenyl)benzamide] | 100 to 500 nM
CCc1cc2c(cc1-c1ccc(NC(=O)c3c(F)cccc3F)cc1)OC(C)(CO)CC2=O (stereo not drawn) [Example 58, N-(4-(6-Ethyl-2-(hydroxymethyl)-2-methyl-4-oxochroman-7-yl)phenyl)-2,6-difluorobenzamide] | 50 to 100 nM
Cc1cc2c(cc1-c1ccc(NC(=O)c3c(F)cccc3F)nc1)OC(C)(CO)CC2=O (stereo not drawn) [Example 54, 2,6-Difluoro-N-(5-(2-(hydroxymethyl)-2,6-dimethyl-4-oxochroman-7-yl)pyridin-2-yl)benzamide] | 50 to 100 nM
Cc1cc2c(cc1-c1ccc(C(=O)Nc3c(F)cccc3F)cc1)OC1(CCC1)CC2=O [Example 13, N-(2,6-Difluorophenyl)-4-(6-methyl-4-oxospiro[chroman-2,1′-cyclobutan]-7-yl)benzamide] | 25 to 50 nM
Cc1cccc2c1OC1(C=C2c2ccc(NC(=O)c3c(F)cccc3F)cn2)CCC1 [Example 102, 2,6-Difluoro-N(6-(8-methylspiro[chromene-2,1′-cyclobutan]-4-yl)pyridin-3-yl)benzamide] | 25 to 50 nM
CCc1cc2c(cc1-c1cnc(NC(=O)c3c(F)cccc3F)cn1)OC(C)(C)CC2=O [Example 5, N-(5-(6-Ethyl-2,2-dimethyl-4-oxochroman-7-yl)pyrazin-2-yl)-2,6-difluorobenzamide] | < 25 nM
Cc1cc2c(cc1-c1cnc(NC(=O)c3c(F)cccc3F)cn1)OC1(CCC1)CC2=O [Example 36, 2,6-Difluoro-N-(5-(6-methyl-4-oxospiro[chroman-2,1′-cyclobutan]-7-yl)pyrazin-2-yl)benzamide] | < 25 nM
CC1(C)C=C(c2ccc(NC(=O)c3c(F)cccc3F)nc2)c2ccccc2O1 [Example 108, N-(5-(2,2-Dimethyl-2H-chromen-4-yl)pyridin-2-yl)-2,6-difluorobenzamide] | 25 to 50 nM
Cc1cc2c(cc1-c1cnc(NC(=O)c3c(F)cccc3F)cn1)OC(C)(CO)CC2 (stereo not drawn) [Example 114, 2,6-Difluoro-N-(5-(2-(hydroxymethyl)-2,6-dimethylchroman-7-yl)pyrazin-2-yl)benzamide] | 25 to 50 nM
Cc1c(-c2cnc(NC(=O)c3c(F)cccc3F)cn2)ccc2c1OC(C)(C)CC2 [Example 7, 2,6-Difluoro-N-(5-(2,2,8-trimethylchroman-7-yl)pyrazin-2-yl)benzamide] | 50 to 100 nM
CCc1cc2c(cc1-c1ccc(NC(=O)c3c(F)cccc3F)cc1)OC(C)(C)CC2=O [Example 2, N-(4-(6-Ethyl-2,2-dimethyl-4-oxochroman-7-yl)phenyl)-2,6-difluorobenzamide] | < 25 nM
Cc1cc2c(cc1-c1ccc(NC(=O)c3c(F)cccc3F)cc1)OC1(CCC1)CC2=O [Example 16, 2,6-Difluoro-N-(4-(6-methyl-4-oxospiro[chroman-2,1′-cyclobutan]-7-yl)phenyl)benzamide] | < 25 nM
Cc1c(-c2ccc(NC(=O)c3c(F)cccc3F)cc2)ccc2c1OC1(CCC1)CC2 [Example 23, 2,6-Difluoro-N-(4-(8-methylspiro[chroman-2,1′-cyclobutan]-7-yl)phenyl)benzamide] | 50 to 100 nM
Cc1cc2c(cc1-c1ccc(NC(=O)c3c(F)cccc3F)cc1)OC(C)(CO)CC2=O (stereo not drawn) [Example 51, 2,6-Difluoro-N-(4-(2-(hydroxymethyl)-2,6-dimethyl-4-oxochroman-7-yl)phenyl)benzamide] | < 25 nM
Cc1cccc2c1OC1(C=C2c2ccc(NC(=O)c3c(F)cccc3F)nc2)CCC1 [Example 101, 2,6-Difluoro-N-(5-(8-methylspiro[chromene-2,1′-cyclobutan]-4-yl)pyridin-2-yl)benzamide] | < 25 nM
Cc1cc2c(cc1-c1ccc(C(=O)Nc3c(F)cccc3F)cc1)OC1(CCC1)CC2 [Example 116, N-(2,6-Difluorophenyl)-4-(6-methylspiro[chroman-2,1′-cyclobutan]-7-yl)benzamide] | 25 to 50 nM
COCC1(C)C=C(c2ccc(NC(=O)c3c(F)cccc3F)nc2)c2cccc(C)c2O1 (stereo not drawn) [Example 104, 2,6-Difluoro-N-(5-(2-(methoxymethyl)-2,8-dimethyl-2H-chromen-4-yl)pyridin-2-yl)benzamide] | < 25 nM
Cc1cc2c(cc1-c1ccc(NC(=O)c3c(F)cccc3F)cc1)C(=O)CC1(CCC1)O2 [Example 17, 2,6-Difluoro-N-(4-(7-methyl-4-oxospiro[chroman-2,1′-cyclobutan]-6-yl)phenyl)benzamide] | 50 to 100 nM
O=C(Nc1ccc(C2=CC3(CCC3)Oc3ccccc32)cc1)c1c(F)cccc1F [Example 68, 2,6-Difluoro-N-(4-(spiro[chromene-2,1′-cyclobutan]-4-yl)phenyl)benzamide] | < 25 nM
Cc1ccc2c(c1)C(c1ccc(NC(=O)c3c(F)cccc3F)cc1)=CC(C)(CO)O2 (stereo not drawn) [Example 95, 2,6-Difluoro-N-(4-(2-(hydroxymethyl)-2,6-dimethyl-2H-chromen-4-yl)phenyl)benzamide] | 50 to 100 nM
CC1(CO)C=C(c2ccc(NC(=O)c3c(F)cccc3F)cc2)c2ccccc2O1 (stereo not drawn) [Example 93, 2,6-Difluoro-N-(4-(2-(hydroxymethyl)-2-methyl-2H-chromen-4-yl)phenyl)benzamide] | 50 to 100 nM
